Results taken from paper PMC11486602 (The New phytologist, 2024).

Key:
[1] = biological target: PROTODERMAL FACTOR2 (PDF2), pdf2(START)^L467P (Arabidopsis thaliana, UniProt Q93V99, L467P); assay: microscale thermophoresis with […] DOPC/LysoPC […] liposomes; type: binding
[2] = biological target: T1, PROTODERMAL FACTOR2 (PDF2) (Arabidopsis thaliana, UniProt Q93V99); assay: as above; type: binding
T1 sequence (Q93V99 244-476 limits assumed): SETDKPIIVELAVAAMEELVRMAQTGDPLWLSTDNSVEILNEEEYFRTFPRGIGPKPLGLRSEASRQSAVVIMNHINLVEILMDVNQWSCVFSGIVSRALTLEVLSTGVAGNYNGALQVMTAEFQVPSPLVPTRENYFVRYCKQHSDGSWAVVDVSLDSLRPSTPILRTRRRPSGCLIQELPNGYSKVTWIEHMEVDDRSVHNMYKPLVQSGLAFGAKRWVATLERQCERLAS

PROTODERMAL FACTOR2 (PDF2), pdf2(START)^L467P, sequence (Q93V99 244-476 L467P): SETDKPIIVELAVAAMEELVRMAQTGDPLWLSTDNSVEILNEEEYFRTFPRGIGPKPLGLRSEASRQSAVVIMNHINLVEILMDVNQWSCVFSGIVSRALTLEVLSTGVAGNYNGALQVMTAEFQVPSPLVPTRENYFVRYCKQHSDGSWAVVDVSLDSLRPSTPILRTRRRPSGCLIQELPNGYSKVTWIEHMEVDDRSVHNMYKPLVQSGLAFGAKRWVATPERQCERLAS

Substance: LysoPC 18:1
- Kd [1]: 200 µM
- Kd [2]: 17 µM
